Source: patent US20180021270A1, “METHODS FOR THE TREATMENT OF CANCER USING COENZYME Q10 IN COMBINATION WITH IMMUNE CHECKPOINT MODULATORS” (Berg LLC, priority 2016, published 2018)

Experiments:
[1] = test system: PD-L1 protein on the surface of mouse syngeneic tumor cell lines; assay: PD-L1 protein on the surface of mouse syngeneic tumor cells; type: cell-based; conditions: with or without INFγ, IC50 amount of Coenzyme Q10, 24 hours
Method: The effect of Coenzyme Q10 on the level of PD-L1 protein on the surface of the mouse syngeneic tumor cells was also evaluated. Mouse syngeneic tumor cell lines from different tissue types were cultured with or without interferon γ (INFγ) in the presence or absence of their corresponding IC50 amount of Coenzyme Q10 at 37° C. for 24 hours.

[2] = test system: PD-1 on CD3 positive T cells within Balb/c PBMCs; assay: PD-1 surface expression on murine CD3 positive T cells; type: cell-based, mouse; conditions: 0-800 μM, 24 hours, mean fluorescence intensity
Method: PD-1 surface expression on CD3 positive T cells within PHA stimulated or unstimulated Balb/c PBMCs was also evaluated. Cells were treated with Coenzyme Q10 (0, 12.5, 50, 200, 400 or 800 μM) for 24 hours and PD-1 expression was determined by gating live CD3 positive T cells. Mean fluorescence intensity values were evaluated in histogram plots for PD-1. Two experiments using two different pools of Balb/c PBMCs and one experiment using C57B1/6 PBMCs were conducted.

[3] = test system: murine Balb/c PBMCs; assay: Frequency of PD-1 expressing cells within murine PBMCs; type: cell-based, mouse; conditions: 0-800 μM, 24 hours, dose dependent, unstimulated and PHA-stimulated cells
Method: The frequency of PD-1 expressing cells within PHA-stimulated or unstimulated murine Balb/c PBMCs was also evaluated. Cells were concurrently treated with Coenzyme Q10 (0, 12.5, 50, 200, 400 or 800 μM) for 24 hours and evaluated by flow cytometry using surface marker antibody for αCD3 and viability stains Annexin V/7AAD. Viable cells were identified by plotting Annexin V vs. 7 AAD, and gated viable cells were subjected to CD3 vs. PD-1 staining. Two experiments using two different pools of Balb/c PBMCs and one experiment using C57B1/6 PBMCs were conducted.

[4] = test system: tumor infiltrating lymphocytes (TILs) in murine Pan02 pancreatic tumors; assay: CD8 IHC pathological scoring of tumor infiltrating lymphocytes in Pan02 tumors; type: in vivo, mouse
Method: Tumor samples from mice with murine Pan02 tumors treated with different doses of Coenzyme Q10 were analyzed for the presence of tumor infiltrating lymphocytes (TILs). C57B1/6 female mice were inoculated with 3×10^7 Pan02 cells. When tumors reached a mean volume of 100 mm^3, animals were randomized into four groups and treated with vehicle control or Coenzyme Q10 (25, 50 or 100 mg/kg) twice daily for 21 days. At the end of the study, tumors were removed and subjected to IHC analysis for Tumor Infiltrating Lymphocytes (TILs) with CD8 staining. All slides were subjected to a pathological scoring. […] As shown in FIGS. 29A and 29B, Coenzyme Q10 increased TILs in a dose-dependent manner.

[5] = test system: human PBMCs (T cells); assay: Frequency of immune cell populations within PBMCs by flow cytometry; type: cell-based; conditions: 0-800 μM, 24 hours, dose dependent; greater effect in PHA-stimulated than unstimulated cells
Method: PBMCs isolated from healthy human donor leukopaks were isolated and cryopreserved. To study the effect of Coenzyme Q10, cells were thawed, rested overnight and treated with or without phytohemagglutinin (PHA). PHA is a lectin protein found in plants which activates T cells by inducing mitosis. Various concentrations of Coenzyme Q10 (0, 12.5, 50, 200, 400 or 800 μM) were added to the cells at the same time. 24 hours to 72 hours post-treatment, frequency and viability of immune cell subpopulations was evaluated, as well as proliferative potential, cytokine secretion, and inhibitory receptor surface expression.
The frequency of different immune cell populations within PHA stimulated or unstimulated human PBMCs concurrently treated with Coenzyme Q10 (0, 12.5, 50, 200, 400 or 800 μM) was evaluated by flow cytometry. 24 hours post treatment, PBMCs were analyzed for the surface markers CD3/CD8, CD3/CD4, CD3/CD56, or CD19/CD14. Frequency of immune cell subtypes was quantified by percentage of cells gated for T cells (CD3/CD8/CD4), natural killer T cells (NKT), natural killer (NK) cells, B cells, and monocytes. Cells from 5 healthy donors were tested.

[6] = test system: colon (HT29) cancer cells; assay: mRNA expression of PD1, PD-L1 and PD-L2 in cancer cells treated with Coenzyme Q10; type: cell-based, human; conditions: 50 μM Coenzyme Q10, relative to untreated cells (p<0.05; n=3)
Method: Levels of mRNA expression of the immune checkpoints PD1, PD-L1 and PD-L2 were determined in human breast (MDA-MB231), prostate (LnCAP), ovarian (SKOV-3), colon (HT29), lung (A549), liver (Huh-7), and pancreatic (MIA PaCa-2) cancer cells treated with 50 μM Coenzyme Q10, 100 μM Coenzyme Q10, or the IC50 of Coenzyme Q10 for each cell line.

[7] = test system: murine Pan02 pancreatic cancer cells; assay: Pan02 pancreatic tumor growth in C57BL/6 mice; type: in vivo, mouse; conditions: Day 21
Method: C57BL/6 mice were implanted with murine Pan02 pancreatic cancer cells and treated with different doses of Coenzyme Q10 to evaluate the effects of Coenzyme Q10 on tumor growth. C57B1/6 female mice were inoculated with 3×10^7 Pan02 cells. When tumors reached a mean volume of 100 mm^3, animals were randomized into four groups and treated with vehicle control or Coenzyme Q10 (25, 50 or 100 mg/kg) by intraperitoneal (i.p.) injection twice daily for 21 days. Tumor volume was measured twice per week.

[8] = test system: IL-2; assay: Cytokine ELISA in PBMC supernatants; type: cell-based, human; conditions: during PHA activation, various concentrations of Coenzyme Q10
Method: (§1) Cytokines were measured in the PBMCs according to the manufacturer's protocol for R&D Quantikine ELISA kits (R&D Systems, Inc., Minneapolis, Minn.) specific to each cytokine. PBMCs were collected from 3 donors (D003F, D004F and D005F).

[9] = test system: interferon-γ (IFN-γ); assay: Cytokine ELISA in PBMC supernatants; type: cell-based, human; conditions: during PHA activation, various concentrations of Coenzyme Q10
Method: as §1

[10] = test system: IL-10; assay: Cytokine ELISA in PBMC supernatants; type: cell-based, human; conditions: during PHA activation, various concentrations of Coenzyme Q10
Method: as §1

[11] = 25 mg/kg twice daily for 21 days
[12] = 50 mg/kg twice daily for 21 days
[13] = 100 mg/kg twice daily for 21 days

COC1=C(OC)C(=O)C(C/C=C(\C)CC/C=C(\C)CC/C=C(\C)CC/C=C(\C)CC/C=C(\C)CC/C=C(\C)CC/C=C(\C)CC/C=C(\C)CC/C=C(\C)CCC=C(C)C)=C(C)C1=O [Coenzyme Q10]
Level of PD-L1 protein on the cell surface [1]: did not have any effect | PD-1 expression of PD-1 negative gated CD3+ T cells [2]: does not affect | PD-1 levels on PD-1 high expressing gated CD3+ T cells [2]: increased | Frequency of PD-1 negative CD3 positive T cells [3]: increased | Percentage of mice with TIL levels Higher than Control [4, 11]: 40% | Percentage of mice with TIL levels Lower than Control [4, 11]: 10% | Percentage of mice with TIL levels Similar to Control [4, 11]: 50% | Percentage of mice with TIL levels Higher than Control [4, 12]: 42.9% | Percentage of mice with TIL levels Lower than Control [4, 12]: 28.6% | Percentage of mice with TIL levels Similar to Control [4, 12]: 28.6% | Percentage of mice with TIL levels Higher than Control [4, 13]: 55.2% | Percentage of mice with TIL levels Lower than Control [4, 13]: 33.3% | Percentage of mice with TIL levels Similar to Control [4, 13]: 11.1% | Tumor infiltrating lymphocytes (TILs) in tumors ([4]; 25, 50 or 100 mg/kg twice daily for 21 days, dose-dependent): increased | Frequency of cytotoxic T cells [5]: increased | Frequency of helper T cells [5]: increased | Frequency of total T cells [5]: increased | PD-L1 mRNA expression [6]: significant increase | Percentage of Tumor Growth Inhibition ([7]; 25 mg/kg i.p. twice daily, p=0.2583 to control): 7% | Percentage of Tumor Growth Inhibition ([7]; 50 mg/kg i.p. twice daily, p=0.1255 to control): 19% | Percentage of Tumor Growth Inhibition ([7]; 100 mg/kg i.p. twice daily, p=0.0529 to control): 26% | IL-2 level in supernatant [8]: increased | IFN-γ level in supernatant [9]: increased | IL-10 level in supernatant [10]: dose-dependently decreased
